# Test results reported in US20070178436A1, “Method of inactivating virus in circular blood and its applications in treating viral diseases” (Beijing Jingjing Medical Equipment CO., Ltd., priority 2003, published 2007).
# Like-named read-outs stand apart in the source and are kept apart here.
# What was measured:
# clotting factor VIII = assay: Impact on the activity of clotting factor VIII (detection kit); conditions: 60-minute circulatory processing
# VSV = assay type: cell-based, vesicular stomatitis virus; conditions: for residual virus VSV: 1500 ml plasma, bag with three pressed folded lines
# complement C3 = assay: Impact on the content of complement C3 (single-diffusion plate); conditions: 60 minutes of circulatory processing
# Sindbis virus (SV) = assay type: cell-based
# [1] = Impact on the content of the plasma protein (automatic biochemical analyzer); conditions: 60 minutes of circulatory processing
# clotting factor IX = assay: Impact on the activity of clotting factor IX (detection kit); conditions: for Activity of factor IX (%): 60 minutes of circulatory processing
# [2] = test system: clotting factors of plasma; assay: Clotting factors before and after processing, automated coagulation analyzer; conditions: 60 minutes of circulatory processing
# Sindbis = assay type: cell-based, Sindbis virus
# [3] = Impact on the pH value of whole blood; assay type: physicochemical; conditions: for pH value in whole blood: 60 minutes of circulatory processing
# [4] = test system: VSV (vesicular stomatitis virus); assay type: cell-based
# [5] = Impact on the content of Inorganic Salt (automatic biochemical analyzer); conditions: 60 minutes of circulatory processing
smiles,measurement,setting,value
CN(C)c1ccc2nc3ccc(=[N+](C)C)cc-3sc2c1 [methylene blue],range of decrease of the activity of clotting factor VIII,clotting factor VIII,less than 20%
same,residual virus VSV,"VSV; Illumination time 1 h, 50 ml/min",2.63 Lg TCID50
same,residual virus VSV,"VSV; Illumination time 2 h, 50 ml/min",−0.13 Lg TCID50
same,residual virus VSV,"VSV; Illumination time 4 h, 50 ml/min",≦−0.50 Lg TCID50
same,reduction of virus titer VSV,"VSV; Simulation 1, 1500 ml plasma, 50 ml/min",over 5.0 Lg TCID50
same,virus liter left VSV,"VSV; illumination path 2.0 m, illumination time 26.0 sec, 50 ml/min",≦−0.5 Lg TCID50
same,VSV illuminated (titer reduction),"VSV; illumination path 2 meter, 26 seconds, 50 ml/min",more than 5 LgTCID50
same,virus liter left VSV,"VSV; illumination path 2.5 m, illumination time 32.5 sec, 50 ml/min",≦−0.5 Lg TCID50
same,virus liter left VSV,"VSV; illumination path 3.0 m, illumination time 39.0 sec, 50 ml/min",≦−0.5 Lg TCID50
same,virus liter left VSV,"VSV; illumination path 3.5 m, illumination time 45.5 sec, 50 ml/min",≦−0.5 Lg TCID50
same,virus liter left VSV,"VSV; illumination path 4.0 m, illumination time 52.0 sec, 50 ml/min",≦−0.5 Lg TCID50
same,virus titer left (VSV),"VSV; standard 15 cm bag with five pressed folded lines, plasma flowing speed 50",≦−0.50 Lg TCID50
same,virus titer left (VSV),"VSV; standard 15 cm bag with five pressed folded lines, plasma flowing speed 80",0.13 Lg TCID50
same,virus titer left (VSV),"VSV; standard 15 cm bag with three pressed folded lines, plasma flowing speed 50",−0.25 Lg TCID50
same,virus titer left (VSV),"VSV; standard 15 cm bag with three pressed folded lines, plasma flowing speed 80",1.50 Lg TCID50
same,virus titer left (VSV),"VSV; standard 15 cm cut-through plasma bag, plasma flowing speed 50",4.25 Lg TCID50
same,virus titer left (VSV),"VSV; standard 15 cm cut-through plasma bag, plasma flowing speed 80",5.13 Lg TCID50
same,reduction of the content of the complement C3 compared to a reference,complement C3,about 5%
same,content of the complement C3,complement C3; batch I,5.64 mg/mL
same,content of the complement C3,complement C3; batch II,5.43 mg/mL
same,content of the complement C3,complement C3; batch III,5.61 mg/mL
same,virus titer left Sindbis,Sindbis virus (SV),≦−0.05 lg TCID50
same,Albumin content,[1],36.1 g/L
same,Glucose content,[1],21.2 mM/l
same,Total protein content,[1],58.8 g/L
same,triglyceride content,[1],1.62 mM/l
same,range of decrease of the activity of clotting factor IX,clotting factor IX; 60-minute circulatory processing,about 10%
same,Activity of factor IX (%),clotting factor IX; batch I,106.1%
same,Activity of factor IX (%),clotting factor IX; batch II,125.2%
same,Activity of factor IX (%),clotting factor IX; batch III,89.4%
same,APTT clotting time,[2],74.0 ″
same,Clotting factor II clotting time,[2],25.0 ″
same,Clotting factor IX clotting time,[2],66.7 ″
same,Clotting factor V clotting time,[2],31.8 ″
same,Clotting factor VII clotting time,[2],26.8 ″
same,Clotting factor VIII clotting time,[2],83.6 ″
same,Clotting factor X clotting time,[2],32.6 ″
same,Clotting factor XI clotting time,[2],82.6 ″
same,Clotting factor XII clotting time,[2],70.2 ″
same,PT clotting time,[2],19.6 ″
same,APTT (reduced),[2]; versus control plasma,17.5%
same,Clotting factor II (reduced),[2]; versus control plasma,1.6%
same,Clotting factor IX (reduced),[2]; versus control plasma,4.9%
same,Clotting factor V (reduced),[2]; versus control plasma,8.9%
same,Clotting factor VII (reduced),[2]; versus control plasma,7.2%
same,Clotting factor VIII (reduced),[2]; versus control plasma,7.2%
same,Clotting factor XI (reduced),[2]; versus control plasma,6.7%
same,Clotting factor XII (reduced),[2]; versus control plasma,3.7%
same,PT (reduced),[2]; versus control plasma,31.5%
same,Sindbis virus illuminated (titer reduction),Sindbis,more than 5 LgTCID50
same,reduction of virus titer Sindbis,Sindbis,over 5.0 Lg TCID50
same,virus liter left Sindbis,Sindbis,≦−0.5 Lg TCID50
same,pH value in whole blood,[3]; batch I,7.35
same,pH value in whole blood,[3]; batch II,7.38
same,pH value in whole blood,[3]; batch III,7.36
same,change on the pH value of the whole blood,[3]; processing method of the invention,does not cause any change on the pH value
same,virus titer left (VSV),"[4]; Volume of blood 1000 ml, circulatory time 60 mins",≦−0.5 lg TCID50
same,virus titer left (VSV),"[4]; Volume of blood 2000 ml, circulatory time 120 mins",≦−0.5 lg TCID50
same,Ca content,[5],1.57 mM/l
same,Cho content,[5],3.82 mM/l
same,Cl content,[5],58.7 mM/l
same,K content,[5],3.22 mM/l
same,Mg content,[5],0.67 mM/l
same,Na content,[5],135.1 mM/l
same,P content,[5],1.19 mM/l
